Assay results published in patent US20180360786A1, “(R)-CARBIDOPA ALONE OR IN COMBINATION WITH A STEROID FOR TREATING PAIN, INFLAMMATION, AN INFLAMMATORY DISEASE, AN IMMUNE OR AUTOIMMUNE DISEASE AND TUMOUR GROWTH” (PROXIMAGEN GROUP LIMITED, priority 2015, published 2018).
Where two headings read alike, the source gives them in different places.

Key:
CFA induced paw oedema = CFA induced paw oedema in rat, paw volume (plethysmometer); type: in vivo; conditions: dosed 24 hours post CFA, 3 hours post treatment
Procedure: (§1) Assessment of the anti-hyperalgesic properties of (R)-Carbidopa was determined through measurement of weight bearing following CFA induced hypersensitivity. Naive rats distribute their body weight equally between the two hind paws. However, when the injected (left) hind paw is painful, the weight is re-distributed so that less weight is put on the affected paw (decrease in weight bearing on injured paw). Weight bearing through each hind limb was measured using a rat incapacitance tester (Linton Instruments, UK). Rats were placed in the incapacitance tester with the hind paws on separate sensors and the average force exerted by both hind limbs was recorded over 4 seconds. The injection of CFA also induces an oedema that can be assessed by paw volume; this is measured using a plethysmometer. […] Data were analysed by comparing treatment groups to the vehicle control group at each time point. Weight bearing (g) readings were taken for both right and left hind paws and the difference calculated. Data is expressed as % reversal of the hypersensitivity to pain. Paw Volume (mL) readings were taken for the left hind paws. Data are expressed as % reversal of the oedema. Calculation: (post dose reading−pre dose reading)/(naïve reading−pre dose reading)×100, where naive weight bearing difference−pre dose weight bearing difference is defined as the CFA window to be reversed. […]

[1] = tested on: CFA induced hypersensitivity; test: CFA induced hypersensitivity in rat, weight bearing (incapacitance tester); type: in vivo; conditions: dosed 24 hours post CFA, 1 and 3 hours post treatment
Procedure: as §1, with “plethysmometer. The rat's hind paw is placed into the cylinder containing a solution and the volume of displaced liquid determines the paw volume. Naive male, Sprague Dawley rats were acclimatised with food and water available ad libitum. Habituation to the incapacitance tester was performed. Baseline weight bearing and paw volume recordings were taken prior to induction of insult. Inflammatory hypersensitivity was induced by intraplantar injection of CFA (100 μl of 1 mg/ml solution) into the left hind paw. A pre-treatment weight bearing and paw volume measurement was taken to assess hypersensitivity 23 hours post-CFA. Animals were then ranked and randomised according to CFA window in a Latin square design.” for “plethysmometer.”

human VAP-1 (SSAO) = biological target: T1, human VAP-1 (SSAO) (Homo sapiens, UniProt Q16853); test: In vitro determination of human VAP-1 (SSAO) inhibition (HRP-coupled Amplex Red, benzylamine substrate); type: biochemical; conditions: for IC50: purified recombinant human VAP-1 (SSAO), benzylamine 100 μM, room temperature, about 15 min pre-incubation
T1 construct: made in house
T1 sequence (Q16853 29-763 limits assumed): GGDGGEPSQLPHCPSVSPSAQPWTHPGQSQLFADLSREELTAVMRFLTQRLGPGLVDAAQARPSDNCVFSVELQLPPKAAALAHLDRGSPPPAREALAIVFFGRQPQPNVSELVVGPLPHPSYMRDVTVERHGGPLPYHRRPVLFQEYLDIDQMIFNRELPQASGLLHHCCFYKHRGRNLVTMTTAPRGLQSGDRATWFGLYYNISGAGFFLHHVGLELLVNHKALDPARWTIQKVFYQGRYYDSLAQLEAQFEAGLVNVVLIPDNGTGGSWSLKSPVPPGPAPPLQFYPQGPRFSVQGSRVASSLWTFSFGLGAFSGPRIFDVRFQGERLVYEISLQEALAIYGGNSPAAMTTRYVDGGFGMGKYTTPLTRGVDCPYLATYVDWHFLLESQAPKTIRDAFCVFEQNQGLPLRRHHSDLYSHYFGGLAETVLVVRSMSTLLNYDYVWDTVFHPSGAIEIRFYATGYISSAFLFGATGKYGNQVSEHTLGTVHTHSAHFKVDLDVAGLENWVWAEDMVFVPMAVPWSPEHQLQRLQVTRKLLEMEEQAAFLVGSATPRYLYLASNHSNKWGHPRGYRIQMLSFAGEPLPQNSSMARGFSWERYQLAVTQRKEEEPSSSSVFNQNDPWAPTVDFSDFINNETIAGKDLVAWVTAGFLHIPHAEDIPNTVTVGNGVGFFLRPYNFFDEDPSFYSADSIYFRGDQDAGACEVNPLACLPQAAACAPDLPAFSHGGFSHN
Procedure: This assay is performed at room temperature with purified recombinantly expressed human VAP-1 (SSAO). Enzyme was prepared essentially as described in Ohman et al. (Protein Expression and Purification 46 (2006) 321-331). The enzyme activity is assayed with benzylamine as substrate by utilizing the production of hydrogen peroxide in a horseradish peroxidise (HRP) coupled reaction. Briefly, test compounds are dissolved in dimethyl sulfoxide (DMSO) to a concentration of 10 mM. Dose-response measurements are assayed by either creating 1:10 serial dilutions in DMSO to produce a 7 point curve or by making 1:3 serial dilutions in DMSO to produce 11 point curves. The top concentrations are adjusted depending on the potency of the compounds and subsequent dilution in reaction buffer yielded a final DMSO concentration ≤2%.
In a horseradish peroxidise (HRP) coupled reaction, hydrogen peroxide oxidation of 10-acetyl-3,7-dihydroxyphenoxazine produces resorufin, which is a highly fluorescent compound (Zhout and Panchuk-Voloshina. Analytical Biochemistry 253 (1997) 169-174; AmplexR Red Hydrogen Peroxide/peroxidise Assay kit, Invitrogen A22188). Enzyme and compounds in 50 mM sodium phosphate, pH 7.4 are set to pre-incubate in flat-bottomed microtiter plates for approximately 15 minutes before initiating the reaction by addition of a mixture of HRP, benzylamine and Amplex reagent. Benzylamine concentration is fixed at a concentration corresponding to the Michaelis constant, determined using standard procedures. Fluorescence intensity is then measured at several time points during 1-2 hours, exciting at 544 nm and reading the emission at 590 nm. […] The inhibition is measured as % decrease of the signal compared to a control without inhibitor (only diluted DMSO). […] Data is fitted to a four parameter logistic model and IC50 values are calculated, for example by using the GraphPad Prism 4 or XLfit 4 programs.

[2] = biological target: T2, human aromatic L-amino acid decarboxylase (DOPA decarboxylase) (Homo sapiens, UniProt P20711); test: In vitro determination of human aromatic L-amino acid decarboxylase (DOPA decarboxylase) inhibition; type: biochemical; conditions: recombinant human DOPA decarboxylase, 500 μM L-Dopa, 60 min pre-incubation
T2 construct: purchased R&D systems 3564-DC
T2 sequence (P20711 1-480): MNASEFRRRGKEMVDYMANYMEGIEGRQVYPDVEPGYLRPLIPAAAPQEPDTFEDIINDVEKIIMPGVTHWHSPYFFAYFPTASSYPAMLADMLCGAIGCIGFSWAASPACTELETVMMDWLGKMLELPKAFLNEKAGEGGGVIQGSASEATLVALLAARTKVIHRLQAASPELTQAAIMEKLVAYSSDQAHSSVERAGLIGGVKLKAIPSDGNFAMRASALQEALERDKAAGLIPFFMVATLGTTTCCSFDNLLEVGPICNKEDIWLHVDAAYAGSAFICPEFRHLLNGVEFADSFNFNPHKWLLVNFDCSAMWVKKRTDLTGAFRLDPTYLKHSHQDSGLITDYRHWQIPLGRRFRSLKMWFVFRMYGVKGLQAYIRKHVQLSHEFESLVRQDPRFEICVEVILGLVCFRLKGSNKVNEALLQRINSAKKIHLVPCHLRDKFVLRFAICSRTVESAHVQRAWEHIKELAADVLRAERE
Procedure: The enzyme reaction of human DOPA decarboxylase was carried out according to the manufacture instructions (R&D systems cat#3564-DC). The assay measured the ability of recombinant human DOPA decarboxylase to convert L-Dopa to dopamine. The dopamine product was measured by its absorbance at 340 nm after derivatization with trinitrobenzene sulphuric acid. Briefly, the reaction was carried out in 50 mM HEPES buffer containing 100 mM NaCl pH 7.2 for 30 min and stopped by inactivation of the enzyme at 95° C. for 2 min. The inhibitory assay was performed by measuring the decarboxylase activity of DOPA decarboxylase with 0.8 μg enzyme, 500 μM L-Dopa, and 100 μM pyridoxal phosphate in the presence or absence of a fixed amount of each compound. Test compounds were pre-incubated for 60 min with DOPA decarboxylase before initiating the assay with the addition of the substrate L-DOPA. Dose response curves were generated to determine the concentration required to inhibit 50% of decarboxylase activity (IC50). Compounds were evaluated in duplicate at 7 concentrations. IC50 values were derived by nonlinear regression analysis.

## COc1ccc2c(c1)c(CC(=O)O)c(C)n2C(=O)c1ccc(Cl)cc1 [Indomethacin, indomethacin]
CFA induced paw oedema; indomethacin 10 mg/kg
  reduction of paw oedema: significant reduction on paw oedema
[1]; indomethacin 10 mg/kg
  reversal of the hypersensitivity measured using weight bearing: marked reversal of the hypersensitivity

## C[C@](Cc1ccc(O)c(O)c1)(NN)C(=O)O (single isomer, unassigned) [(S)-Carbidopa]
Human VAP-1 (SSAO)
  IC50: 142 nM
[2]; read-out: IC50 for inhibition of human aromatic L-amino acid decarboxylase
  IC50: 190 nM

## C[C@](Cc1ccc(O)c(O)c1)(NN)C(=O)O [(R)-Carbidopa, (R)-carbidopa]
Human VAP-1 (SSAO); comparison of VAP-1 and DOPA decarboxylase inhibition
  selectivity for SSAO/VAP-1 over the enzyme DOPA decarboxylase: surprising selectivity
Human VAP-1 (SSAO)
  IC50: 148 nM
CFA induced paw oedema; 3-30 mg/kg alone
  reduction of paw volume (oedema), Part A, FIG. 2: significant reduction of paw volume
[2]; did not inhibit up to the maximum concentration tested, read-out: inhibition of human aromatic L-amino acid decarboxylase (IC50)
  IC50: > 3000 nM
[1]; 3-30 mg/kg alone
  inhibition of the hypersensitivity response (weight bearing), Part A, FIG. 1: dose-dependently inhibited the hypersensitivity response

## C[C@]12C=CC(=O)C=C1CC[C@@H]1[C@@H]2[C@@H](O)C[C@@]2(C)[C@H]1CC[C@]2(O)C(=O)CO [Prednisolone, prednisolone]
[1]; 0.3-10 mg/kg alone
  inhibition of the hypersensitivity response (weight bearing), Part B, FIG. 3: dose-dependently inhibited the hypersensitivity response
